# Assay results published in US6537754B1, “Association of kinesin with sensitivity to chemotherapeutic drugs” (Board of Trustees of the University of Illinois, priority 1990, dated 2003).
# Starred links: 1 amine or outer side, 2 acyl side, 3 side chain; linkers in the order of their positions; H or OH if unused. Positions of bridges follow the written chain, without caps; N, C: chain ends. Non-standard residues stand in square brackets, D forms with d. Residues, ends and D or L forms follow the SMILES beside them. Chains are numbered I, II in the order given. Actinocin(9to1) = Cc1c2oc3c(C)ccc(C(=O)[*:1])c3nc-2c(C(=O)[*:2])c(N)c1=O; NMeV = CN[C@H](C(=O)O)C(C)C; Sar = CNCC(=O)O
# Tests used:
# [1] = test system: NIH 3T3 cells; test: dynamics of cell growth during and after drug treatment, anti-khcs GSE cells vs control; format: cell-based, mouse; conditions: for effect of the drug in continuous presence / cell death after removal of the drug: 250 ng/mL etoposide, 20 ng/mL camptothecin, 40 ng/mL colchicine; for effect of anti-khcs GSE on the growth-inhibitory effect of the drug: 5 or 11 days continuous exposure, anti-khcs cells vs control; for cell death after removal of the drug: control cells; for cell death after removal of the drug / effect of anti-khcs GSE on cell death after release from the drug: drug removed after 5 days; for overall change in drug resistance conferred by anti-khcs GSE, release vs continuous exposure: long-term, 11 days
# Procedure: Cell growth was measured as described for FIGS. 12A and 12B. Cells were plated and one day later (indicated by the first arrow) the indicated drugs were added at concentrations as described. Four days later (indicated by the second arrow), the drugs were removed from some of the plates. Solid lines indicate cell growth in the continuous presence of the drug, and broken lines indicate cell growth after removal of the drug.
# In these experiments (shown in FIGS. 13A through 13D), NIH 3T3 cells were treated with the corresponding drugs for 5 days, and then incubated for additional 6 days either in the presence or in the absence of the drug. […] After 11 days of drug exposure the total cell number in the etoposide- or camptothecin-treated populations of control cells was a little lower than after 5 days of drug exposure, but in the colchicine-treated control cell population a slow cell growth was still detectable. In the experiments where the drug was removed after 5 days, cell growth was initially activated for all three drugs.
# The expression of the anti-khcs GSE had different effects on the growth inhibition and recovery-associated cell death induced by these drugs.
# [2] = test system: NIH 3T3 cells; test: short-term (4-day) growth inhibition assay, methylene blue staining, cells carrying anti-khcs GSE vs insert-free vector control; format: cell-based, mouse; conditions: NIH 3T3 infected with anti-khcs virus vs insert-free vector; 4 days drug exposure
# Procedure: Drug concentrations are given in ng/mL.
# A 1:1 mixture of ecotropic and amphotropic packaging cells was transfected with retroviral vector pLNCX carrying the anti-khcs GSE using a standard calcium phosphate procedure. […] This virus-containing supernatant was used to infect NIH 3T3 cells, 10 times with 12 hour intervals. Control cells were infected in parallel with the insert-free vector virus obtained by the same procedure. […] DNA from the infected cells was analyzyed by Southern blot hybridization with a virus-specific probe.
# The infected cell population described in Example 7 were analyzed for resistance to several anticancer drugs by a growth inhibition assay. For this assay, 10^4 cells per well were plated in 12-well plated and exposed to increasing concentrations of different drugs for 4 days. Relative cell numbers were measured by the methylene blue staining assay (Perry et al., 1992, Mutation Res. 286: 189-197). […] All of these drugs are known to induce DNA damage, albeit by different mechanism.
# [3] = test system: NIH 3T3 cells; test: long-term growth inhibition assays (cytostatic and cytotoxic effects), cells carrying anti-khcs GSE vs control; format: cell-based, mouse; conditions: for sensitivity of anti-khcs GSE cells to the drug (surviving cells as percentage of growth without drug): 2x10^4 cells per dish, five days in drug, FIGS. 12A and 12B; for resistance or sensitivity of GSE-carrying cells to the drug, long-term assay: four days in drug, then two or six days without drug, anti-khcs cells vs control
# Procedure: Cells were incubated with the drugs for 4 days, followed by 2 or […] in drug-free media, as indicated. Cell growth, presented in arbitrary units, was evaluated by methylene blue staining.
# To further characterize the nature of drug resistance conferred by anti-khcs, the above-described short-term growth inhibition assays were followed by long-term growth inhibition assays which measured both the cytostatic and the cytotoxic effects of different drugs. These assays were carried out by incubating the cells for four days in the presence of the drugs, followed by either two or six days in the absence of the drug, to allow for programmed cell death, which is frequently associated with recovery from drug-induced inhibition (Kung et al., 1990, Cancer Res. 50: 7307-7317).
# Thus, in the experiment shown in FIGS. 12A and 12B, NIH 3T3 cells carrying the anti-khcs GSE and control cells without the GSE were plated at a density of 2×10^4 per culture dish and grown for five days in concentrations of either colchicine or vinblastine. The cells were then fixed and stained, and the number of surviving cells determined and shown as a percentage of cell growth in the absence of drug.
# [4] = test system: NIH 3T3 cells; test: etoposide selection after retroviral transduction of GSEs; format: cell-based, mouse; conditions: recloned proviral inserts in LNCX vector
# Procedure: This selection was carried out directly on virus-producing packaging cells, in the expectation that cells whose resistant phenotype is caused by the GSE expression will produce virus particles carrying such a GSE. The mixture of amphotropic and ecotropic packaging cells was transfected with the cDNA library in the LNCX vector, prepared according to Example 1, and the virus was allowed to spread through the population for 9 days.
# The proviral inserts contained in the etoposide-selected NIH 3T3 cells were analyzed by PCR. […] Individual PCR-amplified fragments were recloned into the LNCX vector in the same position and orientation as in the original plasmid, as illustrated in FIG. 4C. […] These GSEs wee named anti-khcs, VPA and VP9-11.
# [5] = test system: NIH 3T3 cells; test: etoposide resistance with GSE under IPTG-inducible promoter; format: cell-based, mouse; conditions: 5 mM IPTG; IPTG-dependent; vs insert-free vector
# Source text: The components of this system include an enhancer-dependent promoter, combined in cis with multiple repeats of the bacterial lac operator, and a gene expressing LAP265, an artificial regulatory protein derived from the lac repressor and a mammalian transcriptional activator. The anti-khcs GSE was cloned into the plasmid pX6.CLN, which contains the inducible promoter used by Baim et al., supra (a gift of Dr. T. Shenk) which expresses the inserts from an enhancerless SV40 early gene promoter supplemented with 21 repeats of the lac operator sequence. The resulting plasmid, which contains no selectable markers, was co-transfected into NIH 3T3 cells together with the LNCX plasmid carrying the neo gene.
# [6] = test system: primary mouse embryo fibroblasts (MEF); test: life span / immortalization of senescent primary fibroblasts after infection with GSE virus; format: cell-based
# Procedure: The virus carrying the anti-khcs GSE was treated for the ability to increase the life span of primary mouse embryo fibroblasts (MEF). MEF were prepared from 10 day old mouse embryos by a standard trypsinization procedure and senescent cells were frozen at different passages prior to crisis. Senescent MEF, two weeks before crisis, were infected with recombinant retroviruses carrying LNCX vector either without an insert or with anti-khcs.
# [7] = test system: primary human fibroblasts; test: life span of primary human skin fibroblasts after infection with GSE virus; format: cell-based
# Procedure: Primary human fibroblasts, derived from human skin, were obtained from the Aging Cell Repository of the National Institutes of Aging. The cells were grown in DMEM with 20% fetal calf serum supplemented with twice the concentration of amino acids and vitamins normally used to supplement normal human skin fibroblast growth in culture. Cells at the fifth passage were infected with either the control pLNCX virus or the virus carrying mouse anti-khcs GSE (produced as described above in Example 3).
# [8] = test system: NIH 3T3 cells; test: growth parameters of multiply-infected cells; format: cell-based, mouse; conditions: multiple integrated provirus copies; normalised after several passages
# Source text: A 1:1 mixture of ecotropic and amphotropic packaging cells was transfected with retroviral vector pLNCX carrying the anti-khcs GSE using a standard calcium phosphate procedure. Two weeks later, the virus titer, as measured by the formation of G418- resistance NIH 3T3 colonies, reached >10^6 infectious units per mL as a result of “ping-pong” infection (see Bodine et al., 1990, Proc. Natl. Acad. Sci. USA 87: 3738-3742). This virus-containing supernatant was used to infect NIH 3T3 cells, 10 times with 12 hour intervals. Control cells were infected in parallel with the insert-free vector virus obtained by the same procedure. […] DNA from the infected cells was analyzyed by Southern blot hybridization with a virus-specific probe.
# At this stage, the cells were frozen and used for the experiments described below.
molecule,measurement,setting,value
CC[C@@]1(O)C(=O)OCc2c1cc1n(c2=O)Cc2cc3ccccc3nc2-1 [camptothecin],effect of the drug in continuous presence,[1],growth inhibition but little detectable cell death
same,effect of anti-khcs GSE on the growth-inhibitory effect of the drug,[1],small decrease of the growth-inhibitory effect
same,cell death after removal of the drug,[1],extensive cell death
same,effect of anti-khcs GSE on cell death after release from the drug,[1],slight increase in cell death
same,"overall change in drug resistance conferred by anti-khcs GSE, release vs continuous exposure",[1],no significant long-term difference
"Cc1c2oc3c(C)ccc(C(=O)N[C@@H]4C(=O)N[C@H](C(C)C)C(=O)N5CCC[C@H]5C(=O)N(C)CC(=O)N(C)[C@@H](C(C)C)C(=O)O[C@@H]4C)c3nc-2c(C(=O)N[C@@H]2C(=O)N[C@H](C(C)C)C(=O)N3CCC[C@H]3C(=O)N(C)CC(=O)N(C)[C@@H](C(C)C)C(=O)O[C@@H]2C)c(N)c1=O [actinomycin D] (I: T[dV]P[Sar][NMeV] / II: T[dV]P[Sar][NMeV]; ester I:1-I:C, II:1-II:C; linker I:N-II:N via Actinocin(9to1))",change in resistance to the cytostatic effects of the drug induced by anti-khcs GSE,[2],no increase in resistance was observed
CC[C@]1(O)C[C@@H]2CN(CCc3c([nH]c4ccccc34)[C@@](C(=O)OC)(c3cc4c(cc3OC)N(C)[C@H]3[C@@](O)(C(=O)OC)[C@H](OC(C)=O)[C@]5(CC)C=CCN6CC[C@]43[C@@H]65)C2)C1 [vinblastine],sensitivity of anti-khcs GSE cells to the drug (surviving cells as percentage of growth without drug),[3],hypersensitivity
same,"resistance or sensitivity of GSE-carrying cells to the drug, long-term assay",[3],hypersensitive
"COc1cccc2c1C(=O)c1c(O)c3c(c(O)c1C2=O)C[C@@](O)(C(=O)CO)C[C@@H]3O[C@H]1C[C@H](N)[C@H](O)[C@H](C)O1 [Adriamycin, doxorubicin]","resistance or sensitivity of GSE-carrying cells to the drug, long-term assay",[3],resistant
COc1cc2c(c(OC)c1OC)-c1ccc(OC)c(=O)cc1[C@@H](NC(C)=O)CC2 [colchicine],change in resistance to the cytostatic effects of the drug induced by anti-khcs GSE,[2],no increase in resistance was observed
same,sensitivity of anti-khcs GSE cells to the drug (surviving cells as percentage of growth without drug),[3],hypersensitivity
same,"resistance or sensitivity of GSE-carrying cells to the drug, long-term assay",[3],hypersensitive
same,effect of the drug in continuous presence,[1],growth inhibition but little detectable cell death
same,effect of anti-khcs GSE on the growth-inhibitory effect of the drug,[1],more susceptible to the growth-inhibitory effect
same,cell death after removal of the drug,[1],only limited cell death
COc1cc([C@@H]2c3cc4c(cc3[C@@H](O[C@@H]3O[C@@H]5CO[C@@H](C)O[C@H]5[C@H](O)[C@H]3O)[C@H]3COC(=O)[C@H]23)OCO4)cc(OC)c1O [etoposide],"resistance or sensitivity of GSE-carrying cells to the drug, long-term assay",[3],resistant
same,effect of the drug in continuous presence,[1],growth inhibition but little detectable cell death
same,effect of anti-khcs GSE on the growth-inhibitory effect of the drug,[1],"decreased the growth-inhibitory effect of the drug to the same, relatively small extent"
same,cell death after removal of the drug,[1],extensive cell death
same,effect of anti-khcs GSE on cell death after release from the drug,[1],decreased the amount of cell death
same,"overall change in drug resistance conferred by anti-khcs GSE, release vs continuous exposure",[1],much more pronounced after release from the drug
"anti-khcs: genetic suppressor element encoding antisense RNA for mouse kinesin heavy chain gene khcs (SEQ.ID.No.:3), in LNCX retroviral vector (nucleic acid, in LNCX retroviral vector) antisense: CTTGATCCCTTCTGGTTGATGCCAGAAGCTCTTCCTGATCCAGCATTTGTATCTTCAATTTCTCTACCAATTGGCTTTGTTGGTTAATCTCTTCATCCTTGTCATCAAGTTGTTTATACAATTTAGCAAGTTCTTCTTCACACTTTCTTCTTTCAGCATCGGTAAAACTACCAGCCATTCCGACTGCAGCAGCTGGTTTATCACTGGTAATAGCAATATCTTTATCCGCTGTGAAGGCTTCCAAATTAGCTTTCTCTTTGTCAAACTGCTCATCAATAGGCACTGTCTCCCCGTTACGCCAACGGTTTAGCTCGTTTTCCAGCCACT",ability to confer etoposide resistance after retroviral transduction,[4],induce etoposide resistance
same,etoposide resistance of transfectants,[5],clearly increased etoposide resistance
same,features of neoplastic transformation in post-crisis cells,[6]; microscopic,no microscopically visible features of neoplastic transformation
same,proportion of cells surviving the crisis,"[6]; relative to uninfected MEF or control LNCX virus, two weeks after crisis",great increase
same,additional passages survived,[7]; after control cells went into crisis,at least five
same,growth when control cells went into crisis,"[7]; infected at fifth passage, four passages later",continued to grow
same,growth rate and plating efficiency of freshly-obtained multiply-infected cells,[8],decreased growth rate and plating efficiency
